Measurements as given in patent US9315527B2, “Synthesis and applications of peripherally asymmetric aryl POSS compounds” (The United States of America as Represented by the …, priority 2011, dated 2016).
Values after ≈ are worked out from the molar mass of the structure shown.

Assays:
[1] = Solubility of aromatic POSS compounds in organic solvents by visual measurements; format: physicochemical; conditions: visual measurement; for Solubility in CHCl3: chloroform; for Solubility in PE: phenyl ether; for Solubility in Tol: toluene; for Solubility in DMF: dimethyl formamide; for Solubility in THF: tetrahydrofuran
Experimental: The influence of the prescribed peripheral asymmetry of these compounds on solubility was determined by visual measurements in five organic solvents, including chloroform (CHCl3), tetrahydrofuran (THF), phenyl ether (PE), toluene (Tol), and dimethyl formamide (DMF), summarized in Table 1.
The substitution of a single polycyclic aromatic ring on the POSS cage improves solubility substantially in most cases. However, it is difficult to predict the influence of each aromatic group on the observed solubility, as well as in which solvent the solubility will be affected. Modification with a 1-naphthyl group to produce (1-naphthyl)-phenyl7Si8O12 (3) results in solubility in CHCl3 and THF exceeding 100 mg/mL and the observance of more finite solubility in the other investigated solvents. Modification with a 2-naphthyl group to produce (2-naphthyl)phenyl7Si8O12 (4) increases solubility in PE and DMF, but reduces solubility in THF and CHCl3, when compared to (1-naphthyl)-phenyl7Si8O12 (3).

[2] = Phase behavior of POSS in polyetherimide (Ultem 1000, PEI): chloroform solutions and drop cast annealed films; format: physicochemical; conditions: for Appearance of chloroform solution containing PEI and POSS: 5 weight percent PEI in chloroform, POSS 5 weight percent with respect to PEI
Experimental: To examine the phase behavior of this new class of peripherally-asymmetric POSS nanoparticles with a representative aromatic polymer, attempts were made to solubilize both phenyl8Si8O12 and (1-naphthyl)phenyl7Si8O12 in polyetherimide (Ultem 1000, PEI). Chloroform solutions were prepared at a solute concentration of 5 weight percent PEI and POSS concentration of 5 weight percent with respect to PEI. Subsequent films from these solutions were drop cast onto glass substrates, dried under vacuum, and annealed at 220° C., above the glass transition temperature of PEI, to promote equilibrium phase formation.
Qualitatively, the dried and annealed films were visually observed to be of contrasting appearance.

[3] = chloroform, benchmark; cited from earlier work

Row | Compound | Solubility in CHCl3 [1] [mg/mL] | Solubility in PE [1] | Solubility in Tol [1] | Appearance of chloroform solution containing PEI and POSS [2] | Visual appearance of dried and annealed PEI film ([2]; drop cast film, annealed at 220° C.) | Length scale of aggregated particles in PEI film ([2]; drop cast film, annealed at 220° C., microscopy, some regions) | Solubility in CHCl3 (previously documented) [3] | Solubility in DMF [1] [mg/mL] | Solubility in THF [1] [mg/mL] | Phase separation length scale in PEI film ([2]; drop cast film, annealed at 220° C., microscopy)
1 | c1ccc([Si]23O[Si]4(c5ccccc5)O[Si]5(c6ccccc6)O[Si](c6ccccc6)(O2)O[Si]2(c6ccccc6)O[Si](c6ccccc6)(O3)O[Si](c3ccccc3)(O4)O[Si](c3ccccc3)(O5)O2)cc1 [Compound 2, phenyl8Si8O12] | 1 (≈ 968 µM) | ^a (Insoluble.) | ^a (Insoluble.) | cloudy | significantly more opaque | greater than 1 mm | about 1 mg/mL | – | – | –
2 | (9-phenanthrenyl)-phenyl7Si8O12 [Compound 5] | 52 | 25 mg/mL | 27 mg/mL | – | – | – | – | 57 | 117 | –
3 | (2-naphthyl)phenyl7Si8O12 [Compound 4] | 55 | 53 mg/mL | ^a (Insoluble.) | – | – | – | – | 35 | 28 | –
4 | (1-pyrenyl)phenyl7Si8O12 [Compound 6] | 7 | 4 mg/mL | 5 mg/mL | – | – | – | – | 5 | 10 | –
5 | (1-naphthyl)-phenyl7Si8O12 [Compound 3] | – | 15 mg/mL | ^a (Insoluble.) | transparent | – | – | – | 24 | – | less than 5 microns
